Consider eleven molecules from PubChem BioAssay (NCI).

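Dose response: 5 concentrations. Exposure: 48 h. Format: 96-well plates. Endpoint: linear interpolation; highest concentration if not reached. GI50 marks 50% less growth. TGI is the concentration that stops growth completely.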

Test systems include ACHN renal; HT29 colon; NCI-H23 lung; NCI-H522 lung; SF-268 CNS; SK-MEL-5 melanoma; SNB-75 CNS; SR leukemia; COLO 205 colon; NCI-H226 lung.
Holding throughout (assay): inhibition of tumour cell growth, NCI panel, 48 h

On to `COC(=O)c1nc(N)nc(C(=O)OC)c1C(=O)c1ccccc1`, for which the TGI in the assay on ACHN renal, in the assay with HT29 colon, in the assay on NCI-H23 lung, with NCI-H522 lung, with SF-268 CNS and in the assay with SK-MEL-5 melanoma was more than 100 µM in each case. Also, the TGI in the assay on SNB-75 CNS and in the assay on SR leukemia was more than 100 µM in each case.

For `CC1=C(C(=O)Nc2ccccc2C)C(c2ccccc2C)C(C(=O)Nc2ccccc2C)=C(C)N1`, the TGI in the assay with ACHN renal was determined as 29.5 µM; with COLO 205 colon, 62.5 µM; in the assay with HT29 colon, 43 µM; in the assay with NCI-H226 lung, 46.9 µM; with NCI-H23 lung, 68.4 µM; in the assay with NCI-H522 lung it was 29.9 µM. Also, the TGI in the assay on SF-268 CNS was 69.5 µM; with SNB-75 CNS it was 59.2 µM; in the assay on SR leukemia, 65.4 µM.

In the case of `COc1cc(/C=C\c2ccc(Cl)cc2)cc(OC)c1OC`, the TGI in the assay on ACHN renal was more than 100 µM; in the assay on COLO 205 colon, more than 36.3 µM; in the assay on HT29 colon it was 10.2 µM; in the assay on NCI-H226 lung, 6.84 µM; in the assay with NCI-H23 lung, 1.12 µM; in the assay on NCI-H522 lung it was 0.355 µM. The TGI with SF-268 CNS was more than 100 µM; in the assay on SK-MEL-5 melanoma, 12.8 µM; in the assay on SR leukemia it was 16.7 µM.

With `O=C(O)c1cc(=O)c2cc(C(=O)c3cccs3)c(Cl)c(Cl)c2o1`, the TGI in the assay with ACHN renal, in the assay with HT29 colon, in the assay with NCI-H226 lung, in the assay on NCI-H23 lung, with NCI-H522 lung and with SF-268 CNS was more than 100 µM throughout. For the same molecule, the TGI in the assay on SK-MEL-5 melanoma, with SNB-75 CNS and in the assay with SR leukemia was more than 100 µM each time.

On to `O=CN1N=C(c2ccc(Nc3ccnc4cc(Cl)ccc34)cc2)CC1c1ccc(Cl)cc1` (stereo not given), for which the GI50 is 1 µM in the assay with ACHN renal; 2.4 µM in the assay with COLO 205 colon; 0.407 µM in the assay on HT29 colon; 4.66 µM with NCI-H226 lung; 2.77 µM in the assay with NCI-H23 lung; 0.386 µM with NCI-H522 lung. Further, the GI50 in the assay on SF-268 CNS was 0.847 µM; in the assay on SK-MEL-5 melanoma, 0.809 µM; in the assay on SR leukemia, 0.324 µM. Further, the TGI in the assay on ACHN renal was more than 100 µM; in the assay with COLO 205 colon, more than 100 µM; in the assay on HT29 colon, 8.5 µM; in the assay with NCI-H226 lung, more than 100 µM; with NCI-H23 lung it was more than 100 µM; in the assay on NCI-H522 lung, 30.2 µM. Besides, the TGI in the assay with SF-268 CNS, in the assay on SK-MEL-5 melanoma and in the assay with SR leukemia was more than 100 µM in each case.

Take `CCSC(=O)C1(C)OC2CCCCC2C1=O` (stereo not given): the TGI with ACHN renal, in the assay on COLO 205 colon, in the assay on NCI-H226 lung, in the assay with NCI-H522 lung, in the assay on SF-268 CNS and in the assay with SK-MEL-5 melanoma was more than 100 µM throughout. In addition, the TGI with SNB-75 CNS and with SR leukemia was more than 100 µM each time.

Take `CCCCCCCCCCCCCCCCCc1nnc(N)o1`: the TGI with ACHN renal, with COLO 205 colon, in the assay on HT29 colon, with NCI-H226 lung, in the assay with NCI-H23 lung and in the assay on NCI-H522 lung was more than 100 µM each time. In addition, the TGI in the assay with SF-268 CNS, with SNB-75 CNS and in the assay on SR leukemia was more than 100 µM each time.

Take `O=c1cc(-c2ccc(O)cc2)oc2cc(O)cc(O)c12`: the TGI in the assay with ACHN renal was 30.3 µM; with COLO 205 colon, more than 100 µM; with NCI-H226 lung, 75.9 µM; with NCI-H23 lung, 46.6 µM; with NCI-H522 lung, 64.5 µM; in the assay with SF-268 CNS, 83.9 µM. Moreover, the TGI in the assay on SK-MEL-5 melanoma was 87.2 µM; with SNB-75 CNS it was 43.7 µM; in the assay on SR leukemia, more than 100 µM.

As to `COC(=O)C1=C(c2ccc(Cl)cc2)C(O)N=C(NN)N1` (stereo not given), the TGI in the assay on ACHN renal, in the assay with HT29 colon, in the assay on NCI-H226 lung, in the assay on NCI-H23 lung, with NCI-H522 lung and in the assay with SF-268 CNS was more than 100 µM throughout. Further, the TGI in the assay with SK-MEL-5 melanoma and in the assay with SR leukemia was more than 100 µM each time.

In the case of `CC1CC(=O)c2c(ccc3c2C(=O)c2cccc(O)c2C3=O)C1` (stereo not given), the TGI amounted to 25.2 µM in the assay on COLO 205 colon; 18.5 µM with HT29 colon; 34.3 µM with NCI-H226 lung; 27.1 µM in the assay on NCI-H23 lung; 12.7 µM with NCI-H522 lung; 31.1 µM with SF-268 CNS. The TGI with SK-MEL-5 melanoma is 8.48 µM; in the assay on SNB-75 CNS it was 22.9 µM; in the assay on SR leukemia, 35.9 µM.

Regarding `CC(C)=CCc1cc(C2COc3cc4c(c(O)c3C2=O)C=CC(C)(C)O4)c(O)cc1O` (stereo not given), the TGI in the assay with ACHN renal was determined as 32.4 µM; with COLO 205 colon it was 49.9 µM; in the assay with HT29 colon, 31.6 µM; with NCI-H23 lung it was 32.6 µM; in the assay on NCI-H522 lung it was 25.9 µM; in the assay with SF-268 CNS it was 30.5 µM. Also, the TGI is 25 µM in the assay with SK-MEL-5 melanoma, 36 µM in the assay on SNB-75 CNS and 24.1 µM with SR leukemia.
